Reference: patent US8461328B2, “Tricyclic heterocyclic compounds, compositions and methods of use thereof” (Genentech, Inc., priority 2010, dated 2013)

Legend:
Type in all cases: biochemical
JAK2 = target: T1, JAK2 (Homo sapiens, UniProt O60674); experiment: JAK2 inhibition (Table 4); details: read-out: JAK2 Ki
T1 construct: made in house; host or cells: SF9 insect cells (baculovirus)

JAK3 = target: T2, JAK3 (Homo sapiens, UniProt P52333); experiment: JAK3 inhibition (Table 4); details: read-out: JAK3 Ki
T2 construct: made in house; host or cells: SF9 insect cells (baculovirus)
T2 sequence (P52333 783-1124): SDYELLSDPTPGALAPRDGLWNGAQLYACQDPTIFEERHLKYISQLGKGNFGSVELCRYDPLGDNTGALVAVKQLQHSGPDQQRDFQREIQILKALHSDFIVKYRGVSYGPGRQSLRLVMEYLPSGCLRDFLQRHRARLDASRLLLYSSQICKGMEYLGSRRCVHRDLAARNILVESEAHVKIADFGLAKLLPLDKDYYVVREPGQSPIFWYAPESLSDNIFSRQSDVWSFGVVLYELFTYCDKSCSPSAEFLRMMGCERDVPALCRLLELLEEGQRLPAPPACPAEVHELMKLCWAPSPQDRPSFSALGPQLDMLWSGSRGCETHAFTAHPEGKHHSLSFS

TYK2 = target: T3, TYK2 (Homo sapiens, UniProt P29597); experiment: TYK2 inhibition (Table 4)
T3 construct: made in house; host or cells: SF9 insect cells (baculovirus)
T3 sequence (P29597 873-1187): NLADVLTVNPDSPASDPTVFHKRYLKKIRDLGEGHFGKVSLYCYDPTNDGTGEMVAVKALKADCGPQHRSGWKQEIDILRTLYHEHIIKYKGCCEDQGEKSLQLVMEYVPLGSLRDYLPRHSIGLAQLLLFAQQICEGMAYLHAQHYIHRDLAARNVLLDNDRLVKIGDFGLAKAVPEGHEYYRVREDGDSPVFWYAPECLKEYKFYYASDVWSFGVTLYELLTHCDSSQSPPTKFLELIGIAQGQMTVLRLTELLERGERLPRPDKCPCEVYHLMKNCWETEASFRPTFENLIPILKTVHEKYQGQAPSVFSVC

T1 sequence (O60674 812-1132): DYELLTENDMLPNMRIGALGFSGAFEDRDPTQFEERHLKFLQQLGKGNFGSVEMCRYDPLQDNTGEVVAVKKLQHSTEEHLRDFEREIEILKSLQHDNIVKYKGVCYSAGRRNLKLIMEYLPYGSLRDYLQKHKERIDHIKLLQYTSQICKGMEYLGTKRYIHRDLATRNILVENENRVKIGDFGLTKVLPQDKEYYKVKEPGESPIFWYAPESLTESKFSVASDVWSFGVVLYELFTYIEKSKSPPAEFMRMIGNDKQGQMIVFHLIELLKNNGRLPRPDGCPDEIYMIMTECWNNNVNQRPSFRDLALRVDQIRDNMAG

SMILES | Ki (JAK2) [nM] | Ki (JAK3) [nM] | Ki (TYK2) [nM]
CS(=O)(=O)NCc1nc2cnc3[nH]ccc3c2n1C1CCN(Cc2ccccc2)CC1 [Example 202, N-[1-(1-Benzyl-piperidin-4-yl)-1,6-dihydro-1,2,3,5,6-tetraaza-as-indacen-2-ylmethyl]-methanesulfonamide] | 44.6 | 60.3 | 831
CS(=O)(=O)NCc1nc2cnc3[nH]ccc3c2n1C1CCNCC1 [Example 206, N-(1-Piperidin-4-yl-1,6-dihydro-1,2,3,5,6-tetraaza-as-indacen-2-ylmethyl)-methanesulfonamide] | 812 | 3050 | 565
CS(=O)(=O)NCc1nc2cnc3[nH]ccc3c2n1C1CCN(CCC#N)CC1 [Example 208, N-{1-[1-(2-Cyano-ethyl)-piperidin-4-yl]-1,6-dihydro-1,2,3,5,6-tetraaza-as-indacen-2-ylmethyl}-methanesulfonamide] | 43.1 | 171 | 151
N#Cc1cccc(CN[C@H]2CC[C@H](n3cnc4cnc5[nH]ccc5c43)CC2)c1 [Example 219, 3-{[4-(6H-1,3,5,6-Tetraaza-as-indacen-1-yl)-cyclohexylamino]-methyl}-benzonitrile] | 11.2 | 89 | 37.3
CN1CCC[C@@H]1C(=O)N1CCC(n2cnc3cnc4[nH]ccc4c32)CC1 [Example 252, ((R)-1-Methyl-pyrrolidin-2-yl)-[4-(6H-1,3,5,6-tetraaza-as-indacen-1-yl)-piperidin-1-yl]-methanone] | 285 | 1280 | 973
N#CCCN[C@H]1CC[C@H](n2cnc3cnc4[nH]ccc4c32)CC1 [Example 275, 3-[4-(6H-1,3,5,6-Tetraaza-as-indacen-1-yl)-cyclohexylamino]-propionitrile] | 11.5 | 47.4 | 36.4
CC(C)(C)OC(=O)N[C@H]1CC[C@@H](n2cnc3cnc4[nH]ccc4c32)CC1 [Example 288, [4-(6H-1,3,5,6-Tetraaza-as-indacen-1-yl)-cyclohexyl]-carbamic acid tert-butyl ester] | 11.9 | 206 | 110
N[C@H]1CC[C@@H](n2cnc3cnc4[nH]ccc4c32)CC1 [Example 289, 4-(6H-1,3,5,6-Tetraaza-as-indacen-1-yl)-cyclohexylamine] | 80.2 | 79.5 | 107
COC(=O)N[C@H]1CC[C@H](n2cnc3cnc4[nH]ccc4c32)CC1 [Example 311, [4-(6H-1,3,5,6-Tetraaza-as-indacen-1-yl)-cyclohexyl]-carbamic acid methyl ester] | 14.1 | 91.6 | 59.8
CC1(n2cnc3cnc4[nH]ccc4c32)CCNCC1 [Example 318, 1-(4-Methyl-piperidin-4-yl)-1,6-dihydro-1,3,5,6-tetraaza-as-indacene] | 1100 | 976 | 1900
N#CCCN[C@H]1CC[C@@H](n2cnc3cnc4[nH]ccc4c32)CC1 [Example 319, 3-[4-(6H-1,3,5,6-Tetraaza-as-indacen-1-yl)-cyclohexylamino]-propionitrile] | 31.2 | 82.9 | 77.8
CS(=O)(=O)N[C@H]1CC[C@@H](n2cnc3cnc4[nH]ccc4c32)CC1 [Example 321, N-[4-(6H-1,3,5,6-Tetraaza-as-indacen-1-yl)-cyclohexyl]-methanesulfonamide] | 9.47 | 56.1 | 38.5
CC1(n2cnc3cnc4[nH]ccc4c32)CCN(Cc2cncnc2)CC1 [Example 322, 1-(4-Methyl-1-pyrimidin-5-ylmethyl-piperidin-4-yl)-1,6-dihydro-1,3,5,6-tetraaza-as-indacene] | 25.5 | 84.8 | 426
CC1(n2cnc3cnc4[nH]ccc4c32)CCN(CCC#N)CC1 [Example 330, 3-[4-Methyl-4-(6H-1,3,5,6-tetraaza-as-indacen-1-yl)-piperidin-1-yl]-propionitrile] | 122 | 269 | 271
CC1(n2cnc3cnc4[nH]ccc4c32)CCN(S(C)(=O)=O)CC1 [Example 332, 1-(1-Methanesulfonyl-4-methyl-piperidin-4-yl)-1,6-dihydro-1,3,5,6-tetraaza-as-indacene] | 7.95 | 71.4 | 31.1
Cn1ccnc1CCc1nc2cnc3[nH]ccc3c2n1C1CCN(CCC#N)CC1 [Example 411, 3-(4-{2-[2-(1-Methyl-1H-imidazol-2-yl)-ethyl]-6H-1,3,5,6-tetraaza-as-indacen-1-yl}-piperidin-1-yl)-propionitrile] | 64.4 | 154 | 422

SMILES | Ki (JAK2) [nM] | Ki (JAK3) [nM] | Ki (TYK2) [nM]
CCS(=O)(=O)NCCc1nc2cnc3[nH]ccc3c2n1C1CCCCC1 [Example 512, Ethanesulfonic acid [2-(1-cyclohexyl-1,6-dihydro-1,3,5,6-tetraaza-as-indacen-2-yl)-ethyl]-amide] | 28.3 | 61.7 | 22
CS(=O)(=O)NCCc1nc2cnc3[nH]ccc3c2n1C1CCCCC1 [Example 514, N-[2-(1-Cyclohexyl-1,6-dihydro-1,3,5,6-tetraaza-as-indacen-2-yl)-ethyl]-methanesulfonamide] | 24.3 | 28.2 | 15.8
CC(C)C(=O)N[C@H]1CC[C@H](n2cnc3cnc4[nH]ccc4c32)CC1 [Example 571, trans N-[4-(6H-1,3,5,6-Tetraaza-as-indacen-1-yl)-cyclohexyl]-isobutyramide] | 21.1 | 197 | 101
c1cc2c(ncc3ncn([C@H]4CC[C@H](NCC5CC5)CC4)c32)[nH]1 [Example 574, trans Cyclopropylmethyl-[4-(6H-1,3,5,6-tetraaza-as-indacen-1-yl)-cyclohexyl]-amine] | 54.6 | 232 | 125
c1cc2c(ncc3ncn([C@H]4CC[C@H](N5CCOCC5)CC4)c32)[nH]1 [Example 594, Trans 1-(4-Morpholin-4-yl-cyclohexyl)-1,6-dihydro-1,2,3,5,6-tetraaza-as-indacene] | 22.7 | 334 | 76.6
N#C[C@@H]1CCN([C@H]2CC[C@H](n3cnc4cnc5[nH]ccc5c43)CC2)C1 [Example 596, Trans (R)-1-[4-(6H-1,2,3,5,6-tetraaza-as-indacen-1-yl)-cyclohexyl]-pyrrolidine-3-carbonitrile] | 5.51 | 67.4 | 17.4
Cc1nc2cnc3[nH]ccc3c2n1[C@H]1CC[C@H](C(C)(C)O)CC1 [Example 632, 2-[4-(2-Methyl-6H-1,2,3,5,6-tetraaza-as-indacen-1-yl)-cyclohexyl]-propan-2-ol] | 3.5 | 36.8 | 13.7
COC[C@H]1CC[C@H](n2c(CNS(C)(=O)=O)nc3cnc4[nH]ccc4c32)CC1 [Example 638, Trans N-[1-(4-methoxymethyl-cyclohexyl)-1,6-dihydro-1,2,3,5,6-tetraaza-as-indacen-2-ylmethyl]-methanesulfonamide] | 77.7 | 150 | 70.7
C[C@@H](O)c1nc2cnc3[nH]ccc3c2n1C1CCCCC1 [Example 671, (R)-1-(1-Cyclohexyl-1,6-dihydro-1,2,3,5,6-tetraaza-as-indacen-2-yl)-ethanol] | 18.1 | 22.4 | 2.47
C[C@@H](O)c1nc2cnc3[nH]ccc3c2n1C1CCCCC1 [Example 672, (R)-1-(1-Cyclohexyl-1,6-dihydro-1,2,3,5,6-tetraaza-as-indacen-2-yl)-ethanol-d11] | 19.8 | 17.2 | 3.01
CS(=O)(=O)NCc1nc2cnc3[nH]ccc3c2n1C1CCN(CC(F)(F)F)CC1 [Example 692, N-{1-[1-(2,2,2-Trifluoro-ethyl)-piperidin-4-yl]-1,6-dihydro-1,2,3,5,6-tetraaza-as-indacen-2-ylmethyl}-methanesulfonamide] | 46.6 | 68.4 | 118
CC(C)(CF)N1CCC(n2c(CNS(C)(=O)=O)nc3cnc4[nH]ccc4c32)CC1 [Example 693, N-{1-[1-(2-Fluoro-1,1-dimethyl-ethyl)-piperidin-4-yl]-1,6-dihydro-1,2,3,5,6-tetraaza-as-indacen-2-ylmethyl}-methanesulfonamide] | 72.1 | 303 | 332
CC1(n2cnc3cnc4[nH]ccc4c32)CCN(CC(F)(F)F)CC1 [Example 752, 1-[4-Methyl-1-(2,2,2-trifluoro-ethyl)-piperidin-4-yl]-1,6-dihydro-1,3,5,6-tetraaza-as-indacene] | 97.2 | 240 | 264
c1cc2c(ncc3ncn(C4CCC(N5CCOCC5)CC4)c32)[nH]1 (stereo not drawn) [Example 775, 1-(4-Morpholin-4-yl-cyclohexyl)-1,6-dihydro-1,3,5,6-tetraaza-as-indacene] | 238 | 910 | 843
CS(=O)(=O)NCc1nc2cnc3[nH]ccc3c2n1[C@H]1CCCOC1 [Example 855, (S)—N-[1-(Tetrahydro-pyran-3-yl)-1,6-dihydro-1,3,5,6-tetraaza-as-indacen-2-ylmethyl]-methanesulfonamide] | 117 | 493 | 112
CS(=O)(=O)NCc1nc2cnc3[nH]ccc3c2n1[C@@H]1CCCOC1 [Example 866, (R)—N-[1-(Tetrahydro-pyran-3-yl)-1,6-dihydro-1,3,5,6-tetraaza-as-indacen-2-ylmethyl]-methanesulfonamide] | 604 | 1110 | 1060
